Assay results published in US20170190671A1, “BIS(ARYL)CATECHOL DERIVATIVES AS HERBICIDES” (E I DU PONT DE NEMOURS AND COMPANY, priority 2014, published 2017).

Legend:
Type in all cases: in vivo
[1] = test system: waterhemp (common waterhemp, Amaranthus rudis); experiment: Test C preemergence; settings: Amaranthus tuberculatus, pre-emergence, scale 0 to 100, read-out: Plant response rating, Waterhemp
In short: (§1)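 Seeded loam-sand soil (preemergence) or young potted plants of 2-18 cm (postemergence) received test chemical formulated with surfactant in a non-phytotoxic solvent. Pots were kept in the greenhouse for 13-15 days before a visual 0-100 control rating relative to controls.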

[2] = test system: pigweed (Amaranthus retroflexus); experiment: Test C preemergence; settings: Amaranthus retroflexus, pre-emergence, 336 h, scale 0 to 100, read-out: Plant response rating, Pigweed
In short: as §1

[3] = test system: giant foxtail (Setaria faberii); experiment: Test C preemergence; settings: Setaria faberi, pre-emergence, 336 h, scale 0 to 100, read-out: Plant response rating, Foxtail, Giant
In short: as §1

[4] = test system: large (Lg) crabgrass (Digitaria sanguinalis); experiment: Test C preemergence; settings: Digitaria sanguinalis, pre-emergence, 336 h, scale 0 to 100, read-out: Plant response rating, Crabgrass, Large
In short: as §1

[5] = test system: velvetleaf (Abutilon theophrasti); experiment: Test C preemergence; settings: Abutilon theophrasti, pre-emergence, scale 0 to 100, read-out: Plant response rating, Velvetleaf
In short: as §1

[6] = test system: winter wheat (Triticum aestivum); experiment: Test C preemergence; settings: Triticum aestivum, pre-emergence, 336 h, scale 0 to 100, read-out: Plant response rating, Wheat
In short: as §1

[7] = test system: morningglory (Ipomoea coccinea); experiment: Test C preemergence; settings: Ipomoea, pre-emergence, 336 h, scale 0 to 100, read-out: Plant response rating, Morningglory
In short: as §1

[8] = test system: johnsongrass (Sorghum halepense); experiment: Test C preemergence; settings: Sorghum halepense, pre-emergence, 336 h, scale 0 to 100, read-out: Plant response rating, Johnsongrass
In short: as §1

[9] = test system: Italian ryegrass (Lolium multiflorum); experiment: Test C preemergence; settings: Lolium multiflorum, pre-emergence, 336 h, scale 0 to 100, read-out: Plant response rating, Ryegrass, Italian
In short: as §1

[10] = test system: ragweed (common ragweed, Ambrosia elatior); experiment: Test C preemergence; settings: Ambrosia artemisiifolia, pre-emergence, 336 h, scale 0 to 100, read-out: Plant response rating, Ragweed
In short: as §1

[11] = test system: barnyardgrass (Echinochloa crus-galli); experiment: Test C preemergence; settings: Echinochloa crus-galli, pre-emergence, read-out: Plant response rating, Barnyardgrass
In short: as §1

[12] = test system: soybean (Glycine max); experiment: Test C preemergence; settings: Glycine max, pre-emergence, scale 0 to 100, read-out: Plant response rating, Soybean
In short: as §1

[13] = test system: blackgrass (Alopecurus myosuroides); experiment: Test C preemergence; settings: Alopecurus myosuroides, pre-emergence, 336 h, scale 0 to 100, read-out: Plant response rating, Blackgrass
In short: as §1

[14] = test system: oilseed rape (Brassica napus); experiment: Test C preemergence; settings: Brassica napus, pre-emergence, scale 0 to 100, read-out: Plant response rating, Oilseed Rape
In short: as §1

[15] = test system: corn (Zea mays); experiment: Test C preemergence; settings: Zea mays, pre-emergence, 336 h, scale 0 to 100
In short: as §1

[16] = test system: chickweed (common chickweed, Stellaria media); experiment: Test C postemergence; settings: Stellaria media, post-emergence, Postemergence, scale 0 to 100, read-out: Plant response rating, Chickweed
In short: as §1

[17] = test system: waterhemp (common waterhemp, Amaranthus rudis); experiment: Test C postemergence; settings: Amaranthus tuberculatus, post-emergence, Postemergence, scale 0 to 100, read-out: Plant response rating, Waterhemp
In short: as §1

[18] = test system: yellow nutsedge (Cyperus esculentus); experiment: Test C postemergence; settings: Cyperus, post-emergence, 336 h, Postemergence, scale 0 to 100, read-out: Plant response rating, Nutsedge, Yellow
In short: as §1

[19] = test system: galium (catchweed bedstraw, Galium aparine); experiment: Test C postemergence; settings: Galium, post-emergence, 336 h, Postemergence, scale 0 to 100, read-out: Plant response rating, Galium
In short: as §1

[20] = test system: pigweed (Amaranthus retroflexus); experiment: Test C postemergence; settings: Amaranthus retroflexus, post-emergence, 336 h, Postemergence, scale 0 to 100, read-out: Plant response rating, Pigweed
In short: as §1

[21] = test system: wild oat (Avena fatua); experiment: Test C postemergence; settings: Avena fatua, post-emergence, Postemergence, scale 0 to 100, read-out: Plant response rating, Oat, Wild
In short: as §1

[22] = test system: kochia (Kochia scoparia); experiment: Test C postemergence; settings: Bassia scoparia, post-emergence, Postemergence, scale 0 to 100, read-out: Plant response rating, Kochia
In short: as §1

N#Cc1cccc(Oc2ncc(Cl)cn2)c1Oc1ncc(Br)cn1 [Compound 4, 2-[(5-bromo-2-pyrimidinyl)oxy]-3-[(5-chloro-2-pyrimidinyl)oxy]benzonitrile]
85%: pest or weed control at 62 g/ha ([11]; 62 g ai/ha, preemergence, scale 0 to 100)
30%: plant injury at 31 g/ha ([12]; 31 g ai/ha, preemergence) | pest or weed control at 31 g/ha ([13]; 31 g ai/ha, preemergence)
10%: pest or weed control at 16 g/ha ([3]; Preemergence, 16 g ai/ha) | pest or weed control at 31 g/ha ([10]; 31 g ai/ha, preemergence) | Corn plant response rating (crop injury, 0 = no effect, 100 = complete kill) at 62 g/ha ([15]; 62 g ai/ha, preemergence) | pest or weed control at 62 g/ha ([18]; 62 g ai/ha) | pest or weed control at 125 g/ha ([18]; 125 g ai/ha) | pest or weed control at 62 g/ha ([21]; 62 g ai/ha) | pest or weed control at 125 g/ha ([21]; 125 g ai/ha)
45%: pest or weed control at 16 g/ha ([1]; Preemergence, 16 g ai/ha) | pest or weed control at 31 g/ha ([5]; 31 g ai/ha, preemergence) | pest or weed control at 62 g/ha ([9]; 62 g ai/ha, preemergence)
20%: pest or weed control at 16 g/ha ([11]; Preemergence, 16 g ai/ha, scale 0 to 100 (0 no effect, 100 complete control)) | pest or weed control at 16 g/ha ([16]; 16 g ai/ha)
15%: pest or weed control at 31 g/ha ([8]; 31 g ai/ha, preemergence) | plant injury at 16 g/ha ([14]; Preemergence, 16 g ai/ha)
95%: plant injury at 125 g/ha ([12]; 125 g ai/ha, preemergence) | pest or weed control at 62 g/ha ([13]; 62 g ai/ha, preemergence) | pest or weed control at 125 g/ha ([13]; 125 g ai/ha, preemergence) | pest or weed control at 125 g/ha ([19]; 125 g ai/ha) | pest or weed control at 125 g/ha ([20]; 125 g ai/ha)
80%: pest or weed control at 62 g/ha ([8]; 62 g ai/ha, preemergence) | pest or weed control at 125 g/ha ([16]; 125 g ai/ha) | pest or weed control at 62 g/ha ([20]; 62 g ai/ha) | pest or weed control at 62 g/ha ([22]; 62 g ai/ha)
70%: pest or weed control at 62 g/ha ([2]; 62 g ai/ha, preemergence) | pest or weed control at 125 g/ha ([9]; 125 g ai/ha, preemergence) | pest or weed control at 125 g/ha ([10]; 125 g ai/ha, preemergence) | pest or weed control at 125 g/ha ([17]; 125 g ai/ha)
100%: pest or weed control at 31 g/ha ([1]; 31 g ai/ha, preemergence) | pest or weed control at 62 g/ha ([1]; 62 g ai/ha, preemergence) | pest or weed control at 125 g/ha ([1]; 125 g ai/ha, preemergence) | pest or weed control at 31 g/ha ([2]; 31 g ai/ha, preemergence) | pest or weed control at 125 g/ha ([2]; 125 g ai/ha, preemergence) | pest or weed control at 62 g/ha ([3]; 62 g ai/ha, preemergence) | pest or weed control at 125 g/ha ([3]; 125 g ai/ha, preemergence) | pest or weed control at 31 g/ha ([4]; 31 g ai/ha, preemergence) | pest or weed control at 62 g/ha ([4]; 62 g ai/ha, preemergence) | pest or weed control at 125 g/ha ([4]; 125 g ai/ha, preemergence) | pest or weed control at 125 g/ha ([5]; 125 g ai/ha, preemergence) | pest or weed control at 125 g/ha ([11]; 125 g ai/ha, preemergence, scale 0 to 100) | plant injury at 125 g/ha ([14]; 125 g ai/ha, preemergence) | pest or weed control at 125 g/ha ([22]; 125 g ai/ha)
5%: pest or weed control at 16 g/ha ([2]; Preemergence, 16 g ai/ha) | pest or weed control at 16 g/ha ([5]; Preemergence, 16 g ai/ha) | plant injury at 125 g/ha ([6]; 125 g ai/ha, preemergence) | pest or weed control at 16 g/ha ([7]; Preemergence, 16 g ai/ha) | pest or weed control at 31 g/ha ([9]; 31 g ai/ha, preemergence) | pest or weed control at 62 g/ha ([10]; 62 g ai/ha, preemergence) | plant injury at 16 g/ha ([12]; Preemergence, 16 g ai/ha) | Corn plant response rating (crop injury, 0 = no effect, 100 = complete kill) at 31 g/ha ([15]; 31 g ai/ha, preemergence) | pest or weed control at 31 g/ha ([21]; 31 g ai/ha)
65%: pest or weed control at 31 g/ha ([20]; 31 g ai/ha)
75%: pest or weed control at 16 g/ha ([4]; Preemergence, 16 g ai/ha) | plant injury at 31 g/ha ([14]; 31 g ai/ha, preemergence) | pest or weed control at 62 g/ha ([17]; 62 g ai/ha)
90%: plant injury at 62 g/ha ([14]; 62 g ai/ha, preemergence)
50%: plant injury at 62 g/ha ([12]; 62 g ai/ha, preemergence) | pest or weed control at 62 g/ha ([16]; 62 g ai/ha)
60%: pest or weed control at 31 g/ha ([11]; 31 g ai/ha, preemergence, scale 0 to 100) | pest or weed control at 62 g/ha ([19]; 62 g ai/ha) | pest or weed control at 16 g/ha ([22]; 16 g ai/ha) | pest or weed control at 31 g/ha ([22]; 31 g ai/ha)
35%: pest or weed control at 31 g/ha ([7]; 31 g ai/ha, preemergence) | Corn plant response rating (crop injury, 0 = no effect, 100 = complete kill) at 125 g/ha ([15]; 125 g ai/ha, preemergence)
40%: pest or weed control at 31 g/ha ([16]; 31 g ai/ha)
0%: plant injury at 31 g/ha ([6]; 31 g ai/ha, preemergence) | plant injury at 62 g/ha ([6]; 62 g ai/ha, preemergence) | plant injury at 16 g/ha ([6]; Preemergence, 16 g ai/ha) | pest or weed control at 16 g/ha ([8]; Preemergence, 16 g ai/ha) | pest or weed control at 16 g/ha ([9]; Preemergence, 16 g ai/ha) | pest or weed control at 16 g/ha ([10]; Preemergence, 16 g ai/ha) | pest or weed control at 16 g/ha ([13]; Preemergence, 16 g ai/ha) | Corn plant response rating (crop injury, 0 = no effect, 100 = complete kill) at 16 g/ha ([15]; Preemergence, 16 g ai/ha) | pest or weed control at 31 g/ha ([18]; 31 g ai/ha)
98%: pest or weed control at 31 g/ha ([3]; 31 g ai/ha, preemergence) | pest or weed control at 125 g/ha ([7]; 125 g ai/ha, preemergence) | pest or weed control at 125 g/ha ([8]; 125 g ai/ha, preemergence)
55%: pest or weed control at 62 g/ha ([5]; 62 g ai/ha, preemergence) | pest or weed control at 62 g/ha ([7]; 62 g ai/ha, preemergence) | pest or weed control at 31 g/ha ([17]; 31 g ai/ha) | pest or weed control at 16 g/ha ([19]; 16 g ai/ha) | pest or weed control at 31 g/ha ([19]; 31 g ai/ha)
